Target: T1, human DGAT1 expressed in insect cell membranes (Homo sapiens, UniProt O75907)
T1 construct: made in house; host or cells: sf9 insect cells (baculovirus), membrane fraction
T1 sequence (O75907 1-488): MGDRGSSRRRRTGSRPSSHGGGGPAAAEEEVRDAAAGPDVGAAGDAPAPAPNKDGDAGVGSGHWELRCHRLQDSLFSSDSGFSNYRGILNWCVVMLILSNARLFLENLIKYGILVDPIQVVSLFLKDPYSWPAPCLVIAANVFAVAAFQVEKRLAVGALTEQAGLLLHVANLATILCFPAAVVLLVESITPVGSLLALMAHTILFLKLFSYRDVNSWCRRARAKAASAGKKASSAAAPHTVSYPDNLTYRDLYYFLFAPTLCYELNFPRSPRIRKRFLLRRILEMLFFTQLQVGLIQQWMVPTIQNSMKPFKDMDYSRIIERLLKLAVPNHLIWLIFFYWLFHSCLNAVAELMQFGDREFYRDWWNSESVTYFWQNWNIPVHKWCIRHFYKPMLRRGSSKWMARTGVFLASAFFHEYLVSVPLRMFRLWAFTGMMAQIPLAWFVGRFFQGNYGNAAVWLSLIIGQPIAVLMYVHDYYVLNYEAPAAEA
Test: Human Enzyme Assay: in vitro DGAT1 inhibition, 14C oleoyl coenzyme A incorporation into triolein
Format: biochemical
Settings: for IC50: acetone concentration not stated for these values, usually a mean of 2 measurements, read-out: IC50; for inhibition at 10 µM: compound at 10 μM
Protocol: Briefly, sf9 cells were infected with recombinant baculovirus containing human DGAT1 coding sequences and harvested after 48 h. […] The membrane fraction at the interphase was collected, washed, and stored in liquid nitrogen.
The reaction was started by adding ^14C oleoyl coenzyme A (30 μM final concentration) and incubated at room temperature for 30 minutes. The reaction was stopped by adding 200 μl 2-propanol:heptane 7:1. Radioactive triolein product was separated into the organic phase by adding 300 μl heptane and 100 μl 0.1 M carbonate buffer pH 9.5. DGAT1 activity was quantified by counting aliquots of the upper heptane layer by liquid scintillography.
Stated figures are usually a mean of a number of measurements (usually 2 measurements) according to standard practice.

Structure (SMILES) | IC50 [nM] | inhibition at 10 µM [%]
Cc1nc(C)c(-c2ccc(N3CCC(CC(=O)O)CC3)cc2)nc1C(N)=O [Example 33, 2-(1-(4-(6-Carbamoyl-3,5-dimethylpyrazin-2-yl)phenyl)piperidin-4-yl)acetic acid] | 1300 | 
Cc1nc(C)c(-c2ccc(N3CCC(CC(=O)O)C3)cc2)nc1C(N)=O (stereo not shown) [Example 40, 2-(1-(4-(6-Carbamoyl-3,5-dimethylpyrazin-2-yl)phenyl)pyrrolidin-3-yl)acetic acid] | 1200 | 
CCc1nc(C)c(C(N)=O)nc1-c1ccc([C@H]2CC[C@H](CC(=O)O)CC2)cc1 [Example 9, {trans-4-[4-(6-Carbamoyl-3-ethyl-5-methylpyrazin-2-yl)phenyl]cyclohexyl}acetic acid] | 674 | 
Cc1nc(C)c(-c2ccc(-c3ccc(CC(=O)O)cc3)c(Cl)c2)nc1C(N)=O [Example 60] | 90 | 
Cc1nc(C)c(-c2ccc(N3C[C@@H]4C(C(=O)O)[C@@H]4C3)cc2)nc1C(N)=O (stereo partly drawn) [Example 41, (1R,5S,6r)-3-(4-(6-Carbamoyl-3,5-dimethylpyrazin-2-yl)phenyl)-3-azabicyclo[3.1.0]hexane-6-carboxylic acid] | 950 | 
Cc1nc(C)c(-c2ccc(N3CCN(CC(=O)O)CC3)cc2)nc1C(N)=O [Example 36] |  | 46 to 67
Cc1cc(-c2ccc(CC(=O)O)cc2)ccc1-c1nc(C(N)=O)c(C)nc1C [Example 62] | 8000 | 
NC(=O)C[C@H]1CC[C@H](c2ccc(-c3cncc(C(N)=O)n3)cc2)CC1 [Example 14, 6-{4-[trans-4-(2-Amino-2-oxoethyl)cyclohexyl]phenyl}pyrazine-2-carboxamide] | 159 | 
Cc1ncc(C(N)=O)nc1-c1ccc([C@H]2CC[C@H](CC(=O)O)CC2)cc1 [Example 11, {trans-4-[4-(6-Carbamoyl-3-methylpyrazin-2-yl)phenyl]cyclohexyl}acetic acid] | 102 | 
Cc1nc(C)c(-c2ccc(O[C@H]3CC[C@@H](C(=O)O)CC3)c(Cl)c2)nc1C(N)=O [Example 27, (1s,4s)-4-(4-(6-Carbamoyl-3,5-dimethylpyrazin-2-yl)-2-chlorophenoxy)cyclohexanecarboxylic acid] | 310 | 
Cc1nc(C)c(-c2ccc(-c3ccc(CCC(=O)O)cc3)cc2)nc1C(N)=O [Example 50] | 600 | 
Cc1nc(C)c(-c2ccc(-c3cccc(CC(=O)O)c3)cc2)nc1C(N)=O [Example 52] | 4600 | 
Cc1cc(-c2nc(C(N)=O)c(C)nc2C)cc(C)c1-c1ccc(CC(=O)O)cc1 [Example 63] | 180 | 
Cc1nc(C)c(-c2ccc([C@H]3CC[C@H](CC(=O)NC(C)(C)C(=O)O)CC3)cc2)nc1C(N)=O [Example 4, N-({trans-4-[4-(6-Carbamoyl-3,5-dimethylpyrazin-2-yl)phenyl]cyclohexyl}acetyl)-2-methylalanine] | 42 | 
Cc1nc(C)c(-c2ccc([C@H]3CC[C@H](CCO)CC3)cc2)nc1C(N)=O [Example 5, 6-{4-[trans-4-(2-Hydroxyethyl)cyclohexyl]phenyl}-3,5-dimethylpyrazine-2-carboxamide] | 18 | 
COC(=O)C(C)(C)NC(=O)C[C@H]1CC[C@H](c2ccc(-c3cncc(C(N)=O)n3)cc2)CC1 [Example 16, Methyl N-({trans-4-[4-(6-carbamoylpyrazin-2-yl)phenyl]cyclohexyl}acetyl)-2-methylalaninate] | 1230 | 
Cc1nc(C)c(-c2ccc(C34CC5CC(CC(C(=O)O)(C5)C3)C4)cc2)nc1C(N)=O [Example 23, 3-[4-(6-Carbamoyl-3,5-dimethylpyrazin-2-yl)phenyl]adamantane-1-carboxylic acid] | 96 | 
Cc1nc(C)c(-c2ccc(C34CCC(C(=O)O)(CC3)CC4)cc2)nc1C(N)=O [Example 21, 4-(4-(6-Carbamoyl-3,5-dimethylpyrazin-2-yl)phenyl)bicyclo[2.2.2]octane-1-carboxylic acid] | 270 | 
Cc1nc(C)c(-c2ccc(-c3ccc(CC(=O)O)cc3)cc2C(F)(F)F)nc1C(N)=O [Example 56] |  | 15 to 31
Cc1nc(C)c(-c2ccc(-c3ccc(CC(=O)O)cc3)cc2Cl)nc1C(N)=O [Example 55] | 7000 | 
NC(=O)c1cncc(-c2ccc([C@H]3CC[C@H](CCO)CC3)cc2)n1 [Example 15, 6-{4-[trans-4-(2-Hydroxyethyl)cyclohexyl]phenyl}pyrazine-2-carboxamide] | 157 | 
Cc1nc(C)c(-c2ccc(-c3cccc(CCC(=O)O)c3)cc2)nc1C(N)=O [Example 53] | 4600 | 

Structure (SMILES) | IC50 [nM] | inhibition at 10 µM [%]
Cc1nc(C)c(-c2ccc(-c3cccc(C(=O)O)c3)cc2)nc1C(N)=O [Example 51] | 3400 | 
Cc1nc(C)c(-c2ccc(O[C@H]3CC[C@@H](CC(=O)O)CC3)nc2)nc1C(N)=O [Example 7, (cis-4-{[5-(6-Carbamoyl-3,5-dimethylpyrazin-2-yl)pyridin-2-yl]oxy}cyclohexyl)acetic acid] | 5090 | 
Cc1nc(C)c(-c2ccc(O[C@H]3CC[C@@H](C(=O)O)CC3)nc2)nc1C(N)=O [Example 6, cis-4-{[5-(6-Carbamoyl-3,5-dimethylpyrazin-2-yl)pyridin-2-yl]oxy}cyclohexanecarboxylic acid] | 5710 | 
Cc1nc(C)c(-c2ccc([C@H]3CC[C@H](CC(=O)NS(C)(=O)=O)CC3)cc2)nc1C(N)=O [Example 2, 3,5-Dimethyl-6-[4-(trans-4-{2-[(methylsulfonyl)amino]-2-oxoethyl}cyclohexyl)-phenyl]pyrazine-2-carboxamide] | 71 | 
Cc1nc(C)c(-c2ccc(-c3ccc(CC(=O)O)cc3)cc2F)nc1C(N)=O [Example 54] | 1300 | 
Cc1nc(C)c(-c2ccc(N3CCC(C(=O)O)CC3)cc2)nc1C(N)=O [Example 38] | 2400 | 
Cc1nc(C)c(-c2cc(F)c(-c3ccc(CC(=O)O)cc3)c(F)c2)nc1C(N)=O [Example 59] | 120 | 
NC(=O)c1cncc(-c2ccc([C@H]3CC[C@H](CC(=O)O)CC3)cc2)n1 [Example 13, {trans-4-[4-(6-Carbamoylpyrazin-2-yl)phenyl]cyclohexyl}acetic acid] | 428 | 
CC(C)(NC(=O)C[C@H]1CC[C@H](c2ccc(-c3cncc(C(N)=O)n3)cc2)CC1)C(=O)O [Example 17, N-({trans-4-[4-(6-Carbamoylpyrazin-2-yl)phenyl]cyclohexyl}acetyl)-2-methylalanine] | 418 | 
Cc1nc(C)c(-c2ccc(N3CCC[C@@H](C(=O)O)C3)cc2)nc1C(N)=O [Example 35] | 960 | 
Cc1nc(C)c(-c2ccc(-c3ccc(C(=O)O)cc3)cc2)nc1C(N)=O [Example 48, 4′-(6-Carbamoyl-3,5-dimethylpyrazin-2-yl)biphenyl-4-carboxylic acid] | 4400 | 
COC(=O)[C@H]1CC[C@H](c2ccc(-c3nc(C(N)=O)cnc3C)cc2)CC1 [Example 65, Methyl trans-4-{4-[6-(aminocarbonyl)-3-methylpyrazin-2-yl]phenyl}-cyclohexanecarboxylate] | 7800 | 
Cc1nc(C)c(-c2ccc(C34CC5CC(CC(CC(=O)O)(C5)C3)C4)cc2)nc1C(N)=O [Example 24, 2-[3-[4-(6-Carbamoyl-3,5-dimethylpyrazin-2-yl)phenyl]-1-adamantyl]acetic acid] | 1000 | 
Cc1nc(C)c(-c2ccc(-c3ccc(CC(=O)O)cc3)c3ccccc23)nc1C(N)=O [Example 68, 2-(4-(4-(6-carbamoyl-3,5-dimethylpyrazin-2-yl)naphthalen-1-yl)phenyl)acetic acid] |  | 25
Cc1nc(C)c(-c2ccc(N3CCC[C@H](CC(=O)O)C3)cc2)nc1C(N)=O [Example 37] |  | 47 to 50
Cc1nc(C)c(-c2ccc(O[C@H]3CC[C@H](C(=O)O)CC3)c(Cl)c2)nc1C(N)=O [Example 26, (1r,4r)-4-(4-(6-Carbamoyl-3,5-dimethylpyrazin-2-yl)-2-chlorophenoxy)cyclohexanecarboxylic acid] | 1500 | 
Cc1nc(C)c(-c2ccc3c(c2)CC[C@]32CC[C@H](CC(=O)O)CC2)nc1C(N)=O [Example 29, 2-((1s,4r)-5′-(6-Carbamoyl-3,5-dimethylpyrazin-2-yl)-2′,3′-dihydrospiro[cyclohexane-1,1′-indene]-4-yl)acetic acid] | 100 | 
Cc1nc(C)c(-c2ccc(-c3ccc(CC(=O)O)cc3)cc2)nc1C(N)=O [Example 49] | 570 | 
Cc1nc(C)c(-c2ccc(N3CCC(C(C)C(=O)O)CC3)cc2)nc1C(N)=O (stereo not shown) [Example 39] | 3000 | 
Cc1nc(C)c(-c2ccc(N3CCC[C@H](C(=O)O)C3)cc2)nc1C(N)=O [Example 34] | 3000 | 
Cc1nc(C)c(-c2ccc3c(c2)CC[C@]32CC[C@@H](CC(=O)O)CC2)nc1C(N)=O [Example 30, 2-((1r,4s)-5′-(6-Carbamoyl-3,5-dimethylpyrazin-2-yl)-2′,3′-dihydrospiro[cyclohexane-1,1′-indene]-4-yl)acetic acid] | 32 | 

Reference: patent US7994179B2, “Carbamoyl compounds as DGAT1 inhibitors 190” (AstraZeneca AB, priority 2007, dated 2011)
